In series [1] the target is T1, thrombin (Homo sapiens, UniProt P00734). As to conditions: thrombin inhibitor; cited from earlier work.
The conditions of series [2]: unusually high doses given to dogs; cited from earlier work.
The test system of series [3] is experimental thrombosis (stasis or thrombin injection), endotoxin shock, DIC. The note with it: cited from earlier work.
Series [4] concerns other proteinases of the clotting cascade. The note with it: completely specific for thrombin; cited from earlier work.
In series [5] the target is T1, thrombin. Briefly: inhibition of thrombin with chromogenic substrate Chromozym TH. The series is classed as biochemical. As to conditions: starting material of Example 1. Here is the method: The biological activity is determined from the inhibition of thrombin, whose enzymatic activity is in turn determined using the chromogenic substrate Chromozym TH (a product of Boehringer, Mannheim, West Germany, for thrombin and hirudin determination) in accordance with known directions supplied with the test preparation.

The values below come from patent publication US4745177A, “Desulfatohirudins, the preparation thereof and pharmaceutical compositions containing them” (Ciba-Geigy Corporation, priority 1983, dated 1988).

For the substance Hirudin, the Ki in series [1] was ~0.06 nM. Besides, in series [2], the “effect on heart rate, respiration, blood pressure, thrombocytes, fibrinogen and haemoglobin” value is “No effect”. For the same substance, the “efficacy in experimental thrombosis, endotoxin shock and DIC” value in series [3] (rats, pigs, dogs, thrombosis induced by stasis or thrombin injection) is given as “proved effective”. In addition, the “direct comparison with heparin” value in series [3] (whenever direct comparison tests were carried out) was “superior to heparin”. Besides, the “inhibition of other proteinases of the clotting cascade” value in series [4] is “does not inhibit”. For the same substance, the “activity (inhibition of thrombin)” value in series [5] is given as 630 IU/mg.

As usually defined, the Ki is the dissociation constant of the complex between target and ligand, obtained from inhibition or displacement.
